These results are taken from ChEMBL document CHEMBL4418268, “Nitrogen-containing heterocyclic compound” (2018).

SMILES strings stand for the structures. Bounds are passed on as bounds.

This assay concerns HUVEC. In words: Inhibition of TNF-alpha-induced CXCL10 production in HUVEC cells at 0.1 uM incubated for 1 hr followed by TNF-alpha addition and measured after 72 hrs by ELISA relative to control. It is filed as functional. The following applies: Homo sapiens.

In the case of `CCn1c(=O)cc(N2CCOCC2)c2cc(-n3c(-c4ccccc4)cn(C(C)C)c3=O)ccc21`, the inhibition (as a rule, how much of the control response was suppressed) at 0.1 µM is not below 50%.

Regarding `CCn1c(=O)cc(N2CCOCC2)c2cc(-n3c(-c4ccccc4)cn(CCN4CCOCC4)c3=O)ccc21`, the inhibition at 0.1 µM is not below 50%.

In the case of `CCn1c(=O)cc(C2CC2)c2cc(N3C(=O)C(C)C(=O)N3c3ccccc3)ccc21` (stereo unspecified), the inhibition at 0.1 µM is not below 50%.

`CCn1c(=O)cc(C)c2cc(-c3cccnc3-c3ccccc3)ccc21` yielded an inhibition at 0.1 µM not below 50%.

`CCn1c(=O)cc(C2CC2)c2cc(-n3c(=O)cc(C)n3-c3ccccc3)ccc21`: the inhibition at 0.1 µM was not below 50%.

Consider `CCn1c(=O)cc(C2CCN(C(C)=O)CC2)c2cc(C(=O)N(C)c3ccc(C)cc3)ccc21`, for which the inhibition at 0.1 µM was not below 50%.

`CCn1c(=O)cc(C2CC2)c2cc(N3C(=O)CC[C@H]3c3ccccc3)ccc21` showed an inhibition at 0.1 µM not below 50%.

The molecule `CCn1c(=O)cc(C2CC2)c2cc(-n3c(-c4ccc(C(F)(F)F)cc4)c[nH]c3=O)ccc21` yielded an inhibition at 0.1 µM not below 50%.

Take `CCn1c(=O)cc(C2CCN(C)CC2)c2cc(C(=O)N3CCCc4ccccc43)ccc21`: the inhibition at 0.1 µM is not below 50%.

Molecule `CCn1c(=O)cc(C2CC2)c2cc(N(C)C(=O)c3ccccc3)ccc21` had an inhibition at 0.1 µM not below 50%.

The molecule `CCn1c(=O)cc(N2CCOCC2)c2cc(-n3c(-c4ccccc4)c[nH]c3=O)ccc21` registered an inhibition at 0.1 µM not below 50%.

The molecule `CCn1c(=O)cc(C2CCN(C)CC2)c2cc(C(=O)N(C)c3ccc(C)c(C)c3)ccc21` registered an inhibition at 0.1 µM not below 50%.

`CCn1c(=O)cc(C2CC2)c2cc(-n3c(-c4ccc(Cl)cc4)cn(C)c3=O)ccc21` had an inhibition at 0.1 µM not below 50%.

In turn, `CCn1c(=O)cc(C2CC2)c2cc(-n3c(-c4ccc(C)cc4)cn(C)c3=O)ccc21` gave an inhibition at 0.1 µM not below 50%.

As for `CCn1c(=O)cc(C2CC2)c2cc(-n3c(-c4ccc(C)cc4)c[nH]c3=O)ccc21`, the inhibition at 0.1 µM was not below 50%.

In the case of `CCn1c(=O)cc(N2CCOCC2)c2cc(-n3c(-c4ccc(C(F)(F)F)cc4)cn(C)c3=O)ccc21`, the inhibition at 0.1 µM was not below 50%.

Regarding `CCn1c(=O)cc(N2CCOCC2)c2cc(-n3c(-c4ccccc4)cn(CCO)c3=O)ccc21`, the inhibition at 0.1 µM is not below 50%.

Molecule `CCn1c(=O)cc(N2CCOCC2)c2cc(-n3c(-c4ccccc4)cn(CCN(C)C)c3=O)ccc21` registered an inhibition at 0.1 µM not below 50%.

For `CCn1c(=O)cc(C2CCN(C)CC2)c2cc(C(=O)N(C)c3ccc(C)c(F)c3)ccc21`, the inhibition at 0.1 µM is not below 50%.

`CCn1c(=O)cc(N2CCOCC2)c2cc(-c3cccnc3-c3ccccc3)ccc21` showed an inhibition at 0.1 µM not below 50%.

As for `CCN1CCC(c2cc(=O)n(CC)c3ccc(C(=O)N(C)c4ccccc4)cc23)CC1`, the inhibition at 0.1 µM is not below 50%.

The molecule `CCn1c(=O)cc(N2CCOCC2)c2cc(-n3c(-c4ccc(Cl)cc4)cn(C)c3=O)ccc21` gave an inhibition at 0.1 µM not below 50%.

`CCn1c(=O)cc(C2CCC(O)CC2)c2cc(C(=O)N(C)c3ccc(Cl)cc3)ccc21` (stereo unspecified) had an inhibition at 0.1 µM not below 50%.

Consider `CCC1C(=O)N(c2ccccc2)N(c2ccc3c(c2)c(C2CC2)cc(=O)n3CC)C1=O` (stereo unspecified), for which the inhibition at 0.1 µM is not below 50%.

Regarding `CCn1c(=O)cc(N2CCOCC2)c2cc(-n3c(-c4ccc(C)cc4)cn(C)c3=O)ccc21`, the inhibition at 0.1 µM is not below 50%.

For the molecule `CCn1c(=O)cc(C2CC2)c2cc(-n3c(C)cc(=O)n3-c3ccccc3)ccc21`, the inhibition at 0.1 µM is not below 50%.

Regarding `CCn1c(=O)cc(N2CCOCC2)c2cc(-c3ccccc3-c3ccccc3)ccc21`, the inhibition at 0.1 µM is not below 50%.

The molecule `CCn1c(=O)cc(C2CC2)c2cc(-c3cccnc3-c3ccccc3)ccc21` gave an inhibition at 0.1 µM not below 50%.

Regarding `CCn1c(=O)cc(C2CC2)c2cc(-n3c(=O)[nH]c(=O)n3-c3ccccc3)ccc21`, the inhibition at 0.1 µM was not below 50%.

In turn, `CCn1c(=O)cc(N2CCOCC2)c2cc(-c3nccn3-c3ccccc3)ccc21` showed an inhibition at 0.1 µM not below 50%.

`CCn1c(=O)cc(C2CC2)c2cc(-n3c(-c4ccc(C(F)(F)F)cc4)cn(C)c3=O)ccc21` returned an inhibition at 0.1 µM not below 50%.

Regarding `CCn1c(=O)cc(C2CC2)c2cc(-n3c(-c4ccc(Cl)cc4)c[nH]c3=O)ccc21`, the inhibition at 0.1 µM is not below 50%.

In turn, `CCn1c(=O)cc(N2CCOCC2)c2cc(N(C)C(=O)c3ccc(Cl)cc3)ccc21` registered an inhibition at 0.1 µM not below 50%.

As for `CCn1c(=O)cc(C(C)C)c2cc(N(C)C(=O)c3ccc(Cl)cc3)ccc21`, the inhibition at 0.1 µM was not below 50%.

`CCCCn1cc(-c2ccccc2)n(-c2ccc3c(c2)c(N2CCOCC2)cc(=O)n3CC)c1=O` returned an inhibition at 0.1 µM not below 50%.

Consider `CCn1c(=O)cc(N2CCOCC2)c2cc(-n3ccnc3-c3ccccc3)ccc21`, for which the inhibition at 0.1 µM was not below 50%.

Take `CCn1c(=O)cc(C2CCN(C)CC2)c2cc(C(=O)N(C)c3ccc4c(c3)CCC4)ccc21`: the inhibition at 0.1 µM is not below 50%.

The molecule `CCn1c(=O)cc(N2CCOCC2)c2cc(-n3c(-c4ccc(C)cc4)c[nH]c3=O)ccc21` gave an inhibition at 0.1 µM not below 50%.

Molecule `CCn1c(=O)cc(N2CCOCC2)c2cc(-n3c(-c4ccc(Cl)cc4)c[nH]c3=O)ccc21` came in with an inhibition at 0.1 µM not below 50%.

In the case of `CCn1c(=O)cc(N2CCOCC2)c2cc(-n3c(-c4ccccc4)cn(CCOC)c3=O)ccc21`, the inhibition at 0.1 µM was not below 50%.

On to `CCn1c(=O)cc(N2CCOCC2)c2cc(N3C(=O)CC[C@H]3c3ccccc3)ccc21`, for which the inhibition at 0.1 µM was not below 50%.

The molecule `CCn1c(=O)cc(N2CCOCC2)c2cc(-n3cc(C)nc3-c3ccccc3)ccc21` had an inhibition at 0.1 µM not below 50%.

`CCn1c(=O)cc(C2CC2)c2cc(-c3nc(C)[nH]c3-c3ccccc3)ccc21` had an inhibition at 0.1 µM not below 50%.

`CCn1c(=O)cc(C2CCN(C)CC2)c2cc(C(=O)N(C)c3ccc(C)c(Cl)c3)ccc21` displayed an inhibition at 0.1 µM not below 50%.

For `CCn1c(=O)cc(C2CCN(C)CC2)c2cc(C(=O)N(C)c3ccc(C)cc3)ccc21`, the inhibition at 0.1 µM was not below 50%.

The molecule `CCn1c(=O)cc(N2CCOCC2)c2cc(-n3c(-c4ccccc4)cn(CCN4CCCCC4)c3=O)ccc21` yielded an inhibition at 0.1 µM not below 50%.

`CCn1c(=O)cc(C2CC2)c2cc(-c3nccnc3-c3ccccc3)ccc21` yielded an inhibition at 0.1 µM not below 50%.

Molecule `CCn1c(=O)cc(N2CCOCC2)c2cc(-n3c(-c4ccc(C(F)(F)F)cc4)c[nH]c3=O)ccc21` had an inhibition at 0.1 µM not below 50%.

The molecule `CCn1c(=O)cc(C2CC2)c2cc(-c3nc(C)nn3-c3ccccc3)ccc21` displayed an inhibition at 0.1 µM not below 50%.

On to `CCn1cc(-c2ccccc2)n(-c2ccc3c(c2)c(N2CCOCC2)cc(=O)n3CC)c1=O`, for which the inhibition at 0.1 µM is not below 50%.

Consider `CCCn1cc(-c2ccccc2)n(-c2ccc3c(c2)c(N2CCOCC2)cc(=O)n3CC)c1=O`, for which the inhibition at 0.1 µM was not below 50%.
